# Data: the kinase profiling compilation of Christmann-Franck et al. (2016)
# Assays:
# Experiment in all cases: radiometric filter-binding kinase assay
# AURKA (human) = AURKA (human) (UniProt O14965)
# BRSK1 (human) = BRSK1 (human) (UniProt Q8TDC3)
# BRSK2 (human) = BRSK2 (human) (UniProt Q8IWQ3)
# CDK2 CCNA2 (human) = CDK2 CCNA2 (human) (UniProt P20248+P24941)
# CLK2 (human) = CLK2 (human) (UniProt P49760)
# CSK (human) = CSK (human) (UniProt P41240); details: compound 10.0 µM
# CSNK1D (human) = CSNK1D (human) (UniProt P48730)
# EPHA4 (human) = EPHA4 (human) (UniProt P54764)
# EPHB2 (human) = EPHB2 (human) (UniProt P29323)
# FGFR1 (human) = FGFR1 (human) (UniProt P11362)
# FLT1 (human) = FLT1 (human) (UniProt P17948); details: compound 10.0 µM
# INSR (human) = INSR (human) (UniProt P06213); details: compound 0.1 µM
# INSRR (human) = INSRR (human) (UniProt P14616)
# IRAK4 (human) = IRAK4 (human) (UniProt Q9NWZ3)
# JAK2 JH1 JH2 (human) = JAK2 JH1 JH2 (human) (UniProt O60674)
# MAP2K2 (human) = MAP2K2 (human) (UniProt P36507)
# MAP3K11 (human) = MAP3K11 (human) (UniProt Q16584)
# MAP3K7 TAB1 (human) = MAP3K7 TAB1 (human) (UniProt Q15750+O43318)
# MAPK12 (human) = MAPK12 (human) (UniProt P53778)
# MAPK8 (human) = MAPK8 (human) (UniProt P45983)
# MAPKAPK3 (human) = MAPKAPK3 (human) (UniProt Q16644)
# MARK4 (human) = MARK4 (human) (UniProt Q96L34)
# MELK (human) = MELK (human) (UniProt Q14680)
# MYLK (human) = MYLK (human) (UniProt Q15746)
# [1] = system: PAK2 (human), Q13177 [T402E]
# PIM1 (human) = PIM1 (human) (UniProt P11309)
# PIM3 (human) = PIM3 (human) (UniProt Q86V86)
# PLK1 (human) = PLK1 (human) (UniProt P53350)
# RIPK2 (human) = RIPK2 (human) (UniProt O43353)
# RPS6KA3 KD1 KD2 (human) = RPS6KA3 KD1 KD2 (human) (UniProt P51812)
# [2] = system: RPS6KB1 (human), P23443 [T412E]
# [3] = system: SGK1 (human), O00141 [S422D]
# SYK (human) = SYK (human) (UniProt P43405)
# TBK1 (human) = TBK1 (human) (UniProt Q9UHD2)
# TTK (human) = TTK (human) (UniProt P33981)
# Chain of TTK (human) (P33981 whole entry, looked up): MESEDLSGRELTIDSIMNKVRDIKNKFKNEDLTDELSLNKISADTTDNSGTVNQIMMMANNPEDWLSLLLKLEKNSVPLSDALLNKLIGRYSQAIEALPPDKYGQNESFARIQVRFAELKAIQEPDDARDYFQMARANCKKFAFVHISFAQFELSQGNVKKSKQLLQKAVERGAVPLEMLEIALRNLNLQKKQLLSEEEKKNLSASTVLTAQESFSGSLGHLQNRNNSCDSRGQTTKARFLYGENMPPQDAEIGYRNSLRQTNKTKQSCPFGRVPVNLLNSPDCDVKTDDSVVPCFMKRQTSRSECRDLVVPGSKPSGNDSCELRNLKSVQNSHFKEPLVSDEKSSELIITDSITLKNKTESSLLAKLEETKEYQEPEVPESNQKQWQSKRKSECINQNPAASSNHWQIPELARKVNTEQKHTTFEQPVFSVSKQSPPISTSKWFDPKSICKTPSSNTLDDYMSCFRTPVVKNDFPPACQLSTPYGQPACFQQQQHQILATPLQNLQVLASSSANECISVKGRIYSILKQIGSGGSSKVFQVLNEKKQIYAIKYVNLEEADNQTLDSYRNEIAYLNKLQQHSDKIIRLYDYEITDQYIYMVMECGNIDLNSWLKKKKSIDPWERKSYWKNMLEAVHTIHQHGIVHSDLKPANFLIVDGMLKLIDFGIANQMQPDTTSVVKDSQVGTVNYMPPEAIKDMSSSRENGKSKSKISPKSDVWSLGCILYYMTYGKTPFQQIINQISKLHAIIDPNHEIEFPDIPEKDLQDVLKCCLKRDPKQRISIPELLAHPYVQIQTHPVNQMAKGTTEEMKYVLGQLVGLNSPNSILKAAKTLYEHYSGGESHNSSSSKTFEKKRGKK
# Chain of EPHB2 (human) (P29323 whole entry, looked up): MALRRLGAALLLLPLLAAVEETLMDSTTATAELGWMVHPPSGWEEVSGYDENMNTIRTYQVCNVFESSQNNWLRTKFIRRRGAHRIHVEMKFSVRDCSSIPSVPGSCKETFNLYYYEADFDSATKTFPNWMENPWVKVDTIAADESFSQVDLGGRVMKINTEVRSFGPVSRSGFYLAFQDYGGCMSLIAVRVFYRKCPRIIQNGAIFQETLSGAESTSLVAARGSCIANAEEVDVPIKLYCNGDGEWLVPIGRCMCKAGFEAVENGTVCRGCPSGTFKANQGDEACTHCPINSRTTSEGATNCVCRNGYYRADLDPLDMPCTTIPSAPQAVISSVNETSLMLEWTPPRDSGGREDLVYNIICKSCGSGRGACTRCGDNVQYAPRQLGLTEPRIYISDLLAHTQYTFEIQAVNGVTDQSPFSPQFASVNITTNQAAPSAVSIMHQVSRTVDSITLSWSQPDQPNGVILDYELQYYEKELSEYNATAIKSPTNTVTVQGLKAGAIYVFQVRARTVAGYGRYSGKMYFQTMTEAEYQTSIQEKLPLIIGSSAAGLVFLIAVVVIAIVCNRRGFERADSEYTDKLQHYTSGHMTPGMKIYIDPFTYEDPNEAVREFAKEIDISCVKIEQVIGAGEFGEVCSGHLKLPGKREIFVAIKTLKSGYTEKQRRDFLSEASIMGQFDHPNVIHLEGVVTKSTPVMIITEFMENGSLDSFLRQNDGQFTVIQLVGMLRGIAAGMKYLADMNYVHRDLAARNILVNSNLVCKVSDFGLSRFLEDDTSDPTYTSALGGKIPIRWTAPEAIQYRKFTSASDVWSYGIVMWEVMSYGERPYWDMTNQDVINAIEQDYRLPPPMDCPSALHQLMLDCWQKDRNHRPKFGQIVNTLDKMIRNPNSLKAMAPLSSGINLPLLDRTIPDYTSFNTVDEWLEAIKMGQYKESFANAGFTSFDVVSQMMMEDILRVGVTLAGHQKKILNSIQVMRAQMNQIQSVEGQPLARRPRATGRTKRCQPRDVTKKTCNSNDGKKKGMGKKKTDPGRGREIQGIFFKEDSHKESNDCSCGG
# Chain of PIM1 (human) (P11309 whole entry, looked up): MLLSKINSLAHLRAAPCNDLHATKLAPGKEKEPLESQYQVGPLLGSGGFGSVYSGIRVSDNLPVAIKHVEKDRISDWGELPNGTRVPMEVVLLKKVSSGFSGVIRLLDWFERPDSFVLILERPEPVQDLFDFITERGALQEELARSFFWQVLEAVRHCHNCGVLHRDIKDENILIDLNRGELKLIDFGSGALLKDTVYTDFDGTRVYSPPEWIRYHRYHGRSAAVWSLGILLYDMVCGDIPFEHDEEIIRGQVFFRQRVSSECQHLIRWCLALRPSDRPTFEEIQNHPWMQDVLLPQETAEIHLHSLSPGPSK
# Chain of MYLK (human) (Q15746 whole entry, looked up): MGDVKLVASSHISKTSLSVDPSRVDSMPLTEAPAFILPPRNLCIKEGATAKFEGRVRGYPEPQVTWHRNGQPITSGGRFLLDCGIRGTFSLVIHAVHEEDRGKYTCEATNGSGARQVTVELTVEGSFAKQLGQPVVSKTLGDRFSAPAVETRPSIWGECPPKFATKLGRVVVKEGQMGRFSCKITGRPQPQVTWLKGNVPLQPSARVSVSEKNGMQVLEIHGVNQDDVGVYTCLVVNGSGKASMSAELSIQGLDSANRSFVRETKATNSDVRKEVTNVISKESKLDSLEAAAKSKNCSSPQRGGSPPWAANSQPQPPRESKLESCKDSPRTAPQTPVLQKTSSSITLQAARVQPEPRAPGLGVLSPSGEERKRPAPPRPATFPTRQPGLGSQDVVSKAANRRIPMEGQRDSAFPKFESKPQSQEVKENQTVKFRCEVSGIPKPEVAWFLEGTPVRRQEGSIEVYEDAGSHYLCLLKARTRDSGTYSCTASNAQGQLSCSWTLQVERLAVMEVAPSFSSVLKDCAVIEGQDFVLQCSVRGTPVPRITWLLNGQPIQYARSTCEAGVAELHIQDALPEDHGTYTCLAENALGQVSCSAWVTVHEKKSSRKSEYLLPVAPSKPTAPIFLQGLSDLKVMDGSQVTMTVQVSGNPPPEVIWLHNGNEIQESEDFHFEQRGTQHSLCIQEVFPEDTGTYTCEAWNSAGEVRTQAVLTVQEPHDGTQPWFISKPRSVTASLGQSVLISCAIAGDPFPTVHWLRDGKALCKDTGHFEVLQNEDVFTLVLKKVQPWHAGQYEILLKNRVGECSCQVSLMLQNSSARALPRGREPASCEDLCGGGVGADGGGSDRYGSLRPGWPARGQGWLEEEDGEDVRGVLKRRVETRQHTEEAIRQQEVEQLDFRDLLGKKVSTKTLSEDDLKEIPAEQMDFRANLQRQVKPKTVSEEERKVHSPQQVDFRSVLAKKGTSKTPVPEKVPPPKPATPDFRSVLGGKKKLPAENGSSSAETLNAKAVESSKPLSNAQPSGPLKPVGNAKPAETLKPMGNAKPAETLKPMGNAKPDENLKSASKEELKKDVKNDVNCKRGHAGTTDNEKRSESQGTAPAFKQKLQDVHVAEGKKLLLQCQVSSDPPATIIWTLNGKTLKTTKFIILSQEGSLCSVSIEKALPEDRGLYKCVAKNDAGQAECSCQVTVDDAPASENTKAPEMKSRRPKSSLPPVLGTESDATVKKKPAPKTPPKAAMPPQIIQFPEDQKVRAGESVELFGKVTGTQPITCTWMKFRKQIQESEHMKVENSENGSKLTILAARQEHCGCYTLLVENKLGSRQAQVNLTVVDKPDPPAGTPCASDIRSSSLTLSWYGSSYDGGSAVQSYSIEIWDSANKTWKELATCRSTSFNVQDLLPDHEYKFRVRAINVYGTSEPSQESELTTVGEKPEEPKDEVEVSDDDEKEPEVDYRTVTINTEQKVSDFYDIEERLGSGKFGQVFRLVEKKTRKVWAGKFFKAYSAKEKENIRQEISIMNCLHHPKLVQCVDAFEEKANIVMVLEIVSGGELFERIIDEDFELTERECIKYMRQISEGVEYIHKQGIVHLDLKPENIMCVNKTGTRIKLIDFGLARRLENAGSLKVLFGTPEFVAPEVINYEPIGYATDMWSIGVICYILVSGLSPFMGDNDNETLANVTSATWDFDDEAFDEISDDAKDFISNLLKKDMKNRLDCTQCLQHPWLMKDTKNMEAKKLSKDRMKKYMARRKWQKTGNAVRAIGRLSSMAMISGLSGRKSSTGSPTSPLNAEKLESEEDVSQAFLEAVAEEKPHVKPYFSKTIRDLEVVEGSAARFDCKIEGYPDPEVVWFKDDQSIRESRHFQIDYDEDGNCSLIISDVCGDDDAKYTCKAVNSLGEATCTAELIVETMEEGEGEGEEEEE
# Chain of PLK1 (human) (P53350 whole entry, looked up): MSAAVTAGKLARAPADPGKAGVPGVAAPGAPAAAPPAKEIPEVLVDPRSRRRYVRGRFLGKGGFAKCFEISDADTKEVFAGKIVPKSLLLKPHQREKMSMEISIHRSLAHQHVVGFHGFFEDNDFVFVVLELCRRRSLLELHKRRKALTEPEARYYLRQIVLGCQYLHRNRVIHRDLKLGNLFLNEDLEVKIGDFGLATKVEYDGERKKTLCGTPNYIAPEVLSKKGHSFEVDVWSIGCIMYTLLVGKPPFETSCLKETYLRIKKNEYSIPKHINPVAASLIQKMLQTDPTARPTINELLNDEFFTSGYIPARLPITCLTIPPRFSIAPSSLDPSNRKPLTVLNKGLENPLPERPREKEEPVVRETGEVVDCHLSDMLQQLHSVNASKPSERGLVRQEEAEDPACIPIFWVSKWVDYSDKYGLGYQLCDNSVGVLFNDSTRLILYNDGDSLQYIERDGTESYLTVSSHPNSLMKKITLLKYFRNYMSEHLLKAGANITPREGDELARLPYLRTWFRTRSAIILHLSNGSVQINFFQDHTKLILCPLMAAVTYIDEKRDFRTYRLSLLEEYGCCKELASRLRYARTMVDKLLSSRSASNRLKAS
structure (smiles),measurement,setting,value
Cc1ccc(-c2ccc3c(ccc4sc5c(c43)NC[C@@H](C)NC5=O)n2)cn1,residual activity,AURKA (human); compound 1.0 µM,102%
same,residual activity,AURKA (human); compound 10.0 µM,84%
same,residual activity,BRSK1 (human); compound 0.1 µM,86%
same,residual activity,BRSK1 (human); compound 1.0 µM,55%
same,residual activity,BRSK1 (human); compound 10.0 µM,29%
same,residual activity,BRSK2 (human); compound 0.1 µM,77%
same,residual activity,BRSK2 (human); compound 1.0 µM,32%
same,residual activity,BRSK2 (human); compound 10.0 µM,8%
same,residual activity,CDK2 CCNA2 (human); compound 0.1 µM,111%
same,residual activity,CDK2 CCNA2 (human); compound 1.0 µM,93%
same,residual activity,CDK2 CCNA2 (human); compound 10.0 µM,57%
same,residual activity,CLK2 (human); compound 0.1 µM,86%
same,residual activity,CLK2 (human); compound 1.0 µM,43%
same,residual activity,CLK2 (human); compound 10.0 µM,9%
same,residual activity,CSK (human),106%
same,residual activity,CSNK1D (human); compound 0.1 µM,96%
same,residual activity,CSNK1D (human); compound 1.0 µM,96%
same,residual activity,CSNK1D (human); compound 10.0 µM,92%
same,residual activity,EPHA4 (human); compound 0.1 µM,99%
same,residual activity,EPHA4 (human); compound 1.0 µM,103%
same,residual activity,EPHA4 (human); compound 10.0 µM,78%
same,residual activity,EPHB2 (human); compound 0.1 µM,99%
same,residual activity,EPHB2 (human); compound 1.0 µM,110%
same,residual activity,EPHB2 (human); compound 10.0 µM,111%
same,residual activity,FGFR1 (human); compound 0.1 µM,95%
same,residual activity,FGFR1 (human); compound 1.0 µM,91%
same,residual activity,FGFR1 (human); compound 10.0 µM,68%
same,residual activity,FLT1 (human),65%
same,residual activity,INSR (human),123%
same,residual activity,INSRR (human); compound 0.1 µM,99%
same,residual activity,INSRR (human); compound 1.0 µM,79%
same,residual activity,INSRR (human); compound 10.0 µM,53%
same,residual activity,IRAK4 (human); compound 0.1 µM,94%
same,residual activity,IRAK4 (human); compound 1.0 µM,62%
same,residual activity,IRAK4 (human); compound 10.0 µM,24%
same,residual activity,JAK2 JH1 JH2 (human); compound 0.1 µM,101%
same,residual activity,JAK2 JH1 JH2 (human); compound 1.0 µM,102%
same,residual activity,JAK2 JH1 JH2 (human); compound 10.0 µM,79%
same,residual activity,MAP2K2 (human); compound 0.1 µM,113%
same,residual activity,MAP2K2 (human); compound 1.0 µM,108%
same,residual activity,MAP2K2 (human); compound 10.0 µM,79%
same,residual activity,MAP3K11 (human); compound 0.1 µM,114%
same,residual activity,MAP3K11 (human); compound 1.0 µM,102%
same,residual activity,MAP3K11 (human); compound 10.0 µM,73%
same,residual activity,MAP3K7 TAB1 (human); compound 0.1 µM,113%
same,residual activity,MAP3K7 TAB1 (human); compound 1.0 µM,109%
same,residual activity,MAP3K7 TAB1 (human); compound 10.0 µM,70%
same,residual activity,MAPK12 (human); compound 0.1 µM,108%
same,residual activity,MAPK12 (human); compound 1.0 µM,115%
same,residual activity,MAPK12 (human); compound 10.0 µM,97%
same,residual activity,MAPK8 (human); compound 0.1 µM,96%
same,residual activity,MAPK8 (human); compound 1.0 µM,93%
same,residual activity,MAPK8 (human); compound 10.0 µM,92%
same,residual activity,MAPKAPK3 (human); compound 0.1 µM,114%
same,residual activity,MAPKAPK3 (human); compound 1.0 µM,62%
same,residual activity,MAPKAPK3 (human); compound 10.0 µM,30%
same,residual activity,MARK4 (human); compound 0.1 µM,107%
same,residual activity,MARK4 (human); compound 1.0 µM,87%
same,residual activity,MARK4 (human); compound 10.0 µM,49%
same,residual activity,MELK (human); compound 0.1 µM,123%
same,residual activity,MELK (human); compound 10.0 µM,77%
same,residual activity,MYLK (human); compound 0.1 µM,118%
same,residual activity,MYLK (human); compound 1.0 µM,112%
same,residual activity,MYLK (human); compound 10.0 µM,110%
same,residual activity,[1]; compound 0.1 µM,102%
same,residual activity,[1]; compound 1.0 µM,103%
same,residual activity,[1]; compound 10.0 µM,93%
same,residual activity,PIM1 (human); compound 0.1 µM,93%
same,residual activity,PIM1 (human); compound 1.0 µM,58%
same,residual activity,PIM1 (human); compound 10.0 µM,17%
same,residual activity,PIM3 (human); compound 0.1 µM,55%
same,residual activity,PIM3 (human); compound 1.0 µM,18%
same,residual activity,PIM3 (human); compound 10.0 µM,3%
same,residual activity,PLK1 (human); compound 0.1 µM,102%
same,residual activity,PLK1 (human); compound 1.0 µM,114%
same,residual activity,PLK1 (human); compound 10.0 µM,98%
same,residual activity,RIPK2 (human); compound 0.1 µM,93%
same,residual activity,RIPK2 (human); compound 10.0 µM,39%
same,residual activity,RPS6KA3 KD1 KD2 (human); compound 0.1 µM,104%
same,residual activity,RPS6KA3 KD1 KD2 (human); compound 1.0 µM,79%
same,residual activity,RPS6KA3 KD1 KD2 (human); compound 10.0 µM,50%
same,residual activity,[2]; compound 0.1 µM,99%
same,residual activity,[2]; compound 1.0 µM,95%
same,residual activity,[2]; compound 10.0 µM,80%
same,residual activity,[3]; compound 0.1 µM,116%
same,residual activity,[3]; compound 1.0 µM,112%
same,residual activity,[3]; compound 10.0 µM,112%
same,residual activity,SYK (human); compound 0.1 µM,94%
same,residual activity,SYK (human); compound 10.0 µM,82%
same,residual activity,TBK1 (human); compound 0.1 µM,110%
same,residual activity,TBK1 (human); compound 1.0 µM,87%
same,residual activity,TBK1 (human); compound 10.0 µM,96%
same,residual activity,TTK (human); compound 0.1 µM,117%
same,residual activity,TTK (human); compound 1.0 µM,101%
same,residual activity,TTK (human); compound 10.0 µM,84%
